Reference: US9976141B2, “Compositions and methods for inhibiting gene expression of Hif2alpha” (Arrowhead Madison Inc., priority 2015, dated 2018)

Tested on: human (tumor) Hif2α (EPAS1) mRNA
Assay: Hif2α knockdown in orthotopic RCC tumor bearing mice, single injection of RNAi trigger-delivery polymer conjugate, RT-qPCR (Table 7)
Assay type: in vivo
Conditions: RNAi trigger 80 μg, polymer 126 400 μg; single tail vein injection; relative to isotonic glucose
Summary of the method: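 Female athymic nude mice carried orthotopic A498-SEAP ccRCC kidney tumours, used 5–6 weeks after implantation. They received one tail-vein injection of RGD-targeted Hif2α RNAi trigger–polymer conjugate or isotonic glucose. Tumour Hif2α mRNA was measured by TaqMan RT-qPCR normalised to CycA (ΔΔCT) and expressed relative to glucose-treated mice.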

Substance | Relative Expression day 4 (Hif2α mRNA in kidney tumor)
AD01291 (antisense TUUCAUGAAAUCGUUACGUUGGC; sense CAACGUAACGAUUUCAUGAAA; Hif2alpha RNAi agent antisense strand; modified_base 2,4,6,8,10,14,16,18,20 /mod_base = “2′-deoxy-2′-fluoro corresponding nucleoside”; modified_base 3,5,7,9,11,12,13,15,17,19,21,22,23 /mod_base = “2′-O-methyl corresponding nucleoside”; modified_base 2,3,22,23 /mod_base = “5′-phosphorothioate corresponding nucleotide”; Hif2alpha RNAi agent sense strand; modified_base 1,3,5,7,9,10,11,13,15,17,19,21 /mod_base = “2′-deoxy-2′-fluoro corresponding nucleoside”; modified_base 2,4,6,8,12,14,16,18,20 /mod_base = “2′-O-methyl corresponding nucleoside”; modified_base 2,3 /mod_base = “5′-phosphorothioate) | 0.19
AD01292 (antisense TUUCAUGAAAUCGUUACGUUGGC; sense CAACGUAACGAUUUCAUGAAA; Hif2alpha RNAi agent antisense strand; modified_base 2,4,6,8,10,14,16,18,20 /mod_base = “2′-deoxy-2′-fluoro corresponding nucleoside”; modified_base 3,5,7,9,11,12,13,15,17,19,21,22,23 /mod_base = “2′-O-methyl corresponding nucleoside”; modified_base 2,3,22,23 /mod_base = “5′-phosphorothioate corresponding nucleotide”; Hif2alpha RNAi agent sense strand; modified_base 3,5,7,9,10,11,13,15,17,19,21 /mod_base = “2′-deoxy-2′-fluoro corresponding nucleoside”; modified_base 2,4,6,8,12,14,16,18,20 /mod_base = “2′-O-methyl corresponding nucleoside”; modified_base 1 /mod_base = “2′-3′ seco correspondin) | 0.27
AD01293 (antisense TUUCAUGAAAUCGUUACGUUGGCUGU; sense UAUAUCAACGUAACGAUUUCAUGAAA; Hif2alpha RNAi agent antisense strand; modified_base 25 modified base = “2′-hydroxy corresponding nucleoside”; modified_base 2,4,6,8,10,14,16,18,20 /mod_base = “2′-deoxy-2′-fluoro corresponding nucleoside”; modified_base 3,5,7,9,11,12,13,15,17,19,21,22,23,24,26 /mod_base = “2′-O-methyl corresponding nucleoside”; modified_base 2,3,23,24 /mod_base = “5′-phosphorothioate corresponding nucleotide”; Hif2alpha RNAi agent sense strand; modified_base 2,4 modified base = “2′-hydroxy corresponding nucleoside”; modified_base 6,8,10,12,14,15,16,18,20,22,24,26 /mod_base = “2′-deoxy-2′-fluoro correspondin) | 0.20
AD01294 (antisense TUUCAUGAAAUCGUUACGUCGGCUGU; sense UAUAUCGACGUAACGAUUUCAUGAAA; Hif2alpha RNAi agent antisense strand; modified_base 25 modified base = “2′-hydroxy corresponding nucleoside”; modified_base 2,4,6,8,10,14,16,18,20 /mod_base = “2′-deoxy-2′-fluoro corresponding nucleoside”; modified_base 3,5,7,9,11,12,13,15,17,19,21,22,23,24,26 /mod_base = “2′-O-methyl corresponding nucleoside”; modified_base 2,3,23,24 /mod_base = “5′-phosphorothioate corresponding nucleotide”; Hif2alpha RNAi agent sense strand; modified_base 2,4 modified base = “2′-hydroxy corresponding nucleoside”; modified_base 6,8,10,12,14,15,16,18,20,22,24,26 /mod_base = “2′-deoxy-2′-fluoro correspondin) | 0.17
AD01295 (antisense TUUCAUGAAAUCGUUACGUUGGCUAU; sense UAUAUCAACGUAACGAUUUCAUGAAA; Hif2alpha RNAi agent antisense strand; modified_base 25 modified base = “2′-hydroxy corresponding nucleoside”; modified_base 2,4,6,8,10,14,16,18,20 /mod_base = “2′-deoxy-2′-fluoro corresponding nucleoside”; modified_base 3,5,7,9,11,12,13,15,17,19,21,22,23,24,26 /mod_base = “2′-O-methyl corresponding nucleoside”; modified_base 2,3,23,24 /mod_base = “5′-phosphorothioate corresponding nucleotide”; Hif2alpha RNAi agent sense strand; modified_base 2,4 modified base = “2′-hydroxy corresponding nucleoside”; modified_base 6,8,10,12,14,15,16,18,20,22,24,26 /mod_base = “2′-deoxy-2′-fluoro correspondin) | 0.22
AD01296 (antisense TUUCAUGAAAUCGUUACGUUGGCUTT; sense UAUAUCAACGUAACGAUUUCAUGAAA; Hif2alpha RNAi agent antisense strand; modified_base 2,4,6,8,10,14,16,18,20 /mod_base = “2′-deoxy-2′-fluoro corresponding nucleoside”; modified_base 3,5,7,9,11,12,13,15,17,19,21,22,23,24 /mod_base = “2′-O-methyl corresponding nucleoside”; modified_base 2,3,25,26 /mod_base = “5′-phosphorothioate corresponding nucleotide”; Hif2alpha RNAi agent sense strand; modified_base 2,4 modified base = “2′-hydroxy corresponding nucleoside”; modified_base 6,8,10,12,14,15,16,18,20,22,24,26 /mod_base = “2′-deoxy-2′-fluoro corresponding nucleoside”; modified_base 1,3,5,7,9,11,13,17,19,21,23,25 /mod_base = “2′) | 0.21

Same assay, conditions: RNAi trigger 150 μg, polymer 100A 300 μg; single tail vein injection; relative to isotonic glucose

Substance | Relative Expression day 4 (Hif2α mRNA in kidney tumor)
AD01404 (antisense TUUCAUGAAAUCGUUACGUCGGCUAU; sense UAUAUCGACGUAACGAUUUCAUGAAA; Hif2alpha RNAi agent antisense strand; modified_base 25 modified base = “2′-hydroxy corresponding nucleoside”; modified_base 2,4,6,10,12,14,16,18,20 /mod_base = “2′-deoxy-2′-fluoro corresponding nucleoside”; modified_base 3,5,7,9,11,13,15,17,19,21,22,23,24,26 /mod_base = “2′-O-methyl corresponding nucleoside”; modified_base 8 /mod_base = “2′-3′ seco corresponding nucleotide”; modified_base 2,3,23,; Hif2alpha RNAi agent sense strand; modified_base 2,4 modified base = “2′-hydroxy corresponding nucleoside”; modified_base 6,8,10,12,14,16,18,20,22,24,26 /mod_base = “2′-deoxy-2′-fluoro correspondi) | 0.58
AD01405 (antisense TUUCAUGAAAUCGUUACGUCGGCUAU; sense UAUAUCGACGUAACGAUUUCAUGAAA; Hif2alpha RNAi agent antisense strand; modified_base 25 modified base = “2′-hydroxy corresponding nucleoside”; modified_base 2,4,6,10,12,14,16,18,20 /mod_base = “2′-deoxy-2′-fluoro corresponding nucleoside”; modified_base 3,5,7,9,11,13,15,17,19,21,22,23,24,26 /mod_base = “2′-O-methyl corresponding nucleoside”; modified_base 8 /mod_base = “2′-3′ seco corresponding nucleotide”; modified_base 2,3,23,; Hif2alpha RNAi agent sense strand; modified_base 2,4 modified base = “2′-hydroxy corresponding nucleoside”; modified_base 6,8,10,12,14,16,18,20,22,24,26 /mod_base = “2′-deoxy-2′-fluoro correspondi) | 0.51
AD01406 (antisense TUUCAUGAAAUCGUUACGUCGGCUAU; sense UAUAUCGACGUAACGAUUUCAUGAAA; Hif2alpha RNAi agent antisense strand; modified_base 25 modified base = “2′-hydroxy corresponding nucleoside”; modified_base 2,4,6,10,12,14,16,18,20 /mod_base = “2′-deoxy-2′-fluoro corresponding nucleoside”; modified_base 3,5,7,9,11,13,15,17,19,21,22,23,24,26 /mod_base = “2′-O-methyl corresponding nucleoside”; modified_base 8 /mod_base = “2′-3′ seco corresponding nucleotide”; modified_base 2,24 /m; Hif2alpha RNAi agent sense strand; modified_base 2,4 modified base = “2′-hydroxy corresponding nucleoside”; modified_base 6,8,10,12,14,16,18,20,22,24,26 /mod_base = “2′-deoxy-2′-fluoro correspondi) | 0.45
